≈ marks a conversion by molar mass, not a printed value. Like-named read-outs stand apart in the source and are kept apart here.
Assays:
[1] = target: T1, human ether-a-go-go related gene (hERG) channel (Homo sapiens, UniProt Q12809); test: hERG test; type: cell-based; conditions: % inhibition of IKr tail peak current at 3 uM; CHO cells expressing hERG
T1 construct: expressed in transfected cells; host or cells: CHO cells
Text: For the purpose of assessing risk of an electrocardiogram QT interval prolongation, effects on delayed rectifier K+ current (IKr), which plays an important role in the ventricular repolarization process of the compound of the present invention, was studied using CHO cells expressing human ether-a-go-go related gene (hERG) channel.
A cell was retained at a membrane potential of […] by whole cell patch clamp method using an automated patch clamp system (QPatch:Sophion Bioscience A/S). After application of leak potential at −50 mV, IKr induced by depolarization pulse stimulation at +20 mV for 2 seconds and, further, repolarization pulse stimulation at −50 mV for 2 seconds was recorded.

CYP2D6 = target: T2, CYP2D6 (Homo sapiens, UniProt P10635); test: CYP inhibition test (CYP2D6); type: in vitro ADME; conditions: pooled human liver microsomes; dextromethorphan O-demethylation
T2 construct: The commercially available pooled human liver microsomes are used as an enzyme resource; from tissue; host or cells: pooled human liver microsomes
T2 sequence (P10635 whole entry): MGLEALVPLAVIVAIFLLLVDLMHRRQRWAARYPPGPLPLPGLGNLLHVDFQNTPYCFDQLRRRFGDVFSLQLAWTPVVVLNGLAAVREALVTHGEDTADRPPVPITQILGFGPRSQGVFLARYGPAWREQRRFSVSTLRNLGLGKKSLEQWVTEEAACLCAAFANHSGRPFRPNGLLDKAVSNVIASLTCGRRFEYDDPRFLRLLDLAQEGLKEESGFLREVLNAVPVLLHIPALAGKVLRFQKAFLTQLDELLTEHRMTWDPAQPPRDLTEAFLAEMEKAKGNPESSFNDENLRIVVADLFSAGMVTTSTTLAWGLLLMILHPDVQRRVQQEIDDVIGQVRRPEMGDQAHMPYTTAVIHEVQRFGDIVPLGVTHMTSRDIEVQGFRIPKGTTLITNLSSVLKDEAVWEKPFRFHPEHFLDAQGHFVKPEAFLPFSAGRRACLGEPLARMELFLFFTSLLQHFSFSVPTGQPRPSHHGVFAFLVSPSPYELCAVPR
Text: (§1) The CYP inhibition test is a test to assess the inhibitory effect of a compound of the present invention towards typical substrate metabolism reactions on CYP enzymes in human liver microsomes. The marker reactions on human main five CYP enzymes (CYP1A2, 2C9, 2C19, 2D6, and 3A4) are used as follows: 7-ethoxyresorufin O-deethylation (CYP1A2), tolbutamide methyl-hydroxylation (CYP2C9), mephenytoin 4′-hydroxylation (CYP2C19), dextromethorphan O-demethylation (CYP2D6), and terfenadine hydroxylation (CYP3A4). The commercially available pooled human liver microsomes are used as an enzyme resource.
(§2) The reaction conditions were as follows: substrate, 0.5 μmol/L ethoxyresorufin (CYP1A2), 100 μmol/L tolbutamide (CYP2C9), 50 μmol/L, S-mephenytoin (CYP2C19), 5 μmol/L dextromethorphan (CYP2D6), 1 μmol/L terfenadine (CYP3A4): reaction time, 15 minutes: reaction temperature, 37° C.; enzyme, pooled human liver microsomes 0.2 mg protein/mL; concentrations of the compound of the present invention, 1, 5, 10, 20 μmol/L (four points).
(§3) Five kinds of substrates, human liver microsomes, and a compound solution of the present invention in […] Hepes buffer were added to a 96-well plate at the composition as described above as a reaction solution. NADPH as a cofactor was added to this 96-well plate in order to initiate metabolism reactions. After the incubation at 37° C.for […], a methanol/acetonitrile=1/1 (v/v) solution was added to stop the reaction. After the centrifugation at 3000 rpm for 15 minutes, resorufin (CYP1A2 metabolite) in the supernatant was quantified by a fluorescent plate reader, and hydroxytolbutamide (CYP2C9 metabolite), 4′-hydroxymephenytoin (CYP2C19 metabolite), dextrorphan (CYP2D6 metabolite), and terfenadine alcohol metabolite (CYP3A4 metabolite) in the supernatant were quantified by LC/MS/MS.
(§4) The sample adding DMSO to a reaction system instead of compound of the present invention solution was adopted as a control (100%) because DMSO was used as a solvent to dissolve a compound of the present invention. Remaining activity (%) was calculated at each concentration of a compound of the present invention, and IC50 value was calculated by reverse presumption by a logistic model using a concentration and an inhibition rate.

CYP2C9 = target: T3, CYP2C9 (Homo sapiens, UniProt P11712); test: CYP inhibition test (CYP2C9); type: in vitro ADME; conditions: pooled human liver microsomes; tolbutamide methyl-hydroxylation
T3 construct: The commercially available pooled human liver microsomes are used as an enzyme resource; from tissue; host or cells: pooled human liver microsomes
T3 sequence (P11712 whole entry): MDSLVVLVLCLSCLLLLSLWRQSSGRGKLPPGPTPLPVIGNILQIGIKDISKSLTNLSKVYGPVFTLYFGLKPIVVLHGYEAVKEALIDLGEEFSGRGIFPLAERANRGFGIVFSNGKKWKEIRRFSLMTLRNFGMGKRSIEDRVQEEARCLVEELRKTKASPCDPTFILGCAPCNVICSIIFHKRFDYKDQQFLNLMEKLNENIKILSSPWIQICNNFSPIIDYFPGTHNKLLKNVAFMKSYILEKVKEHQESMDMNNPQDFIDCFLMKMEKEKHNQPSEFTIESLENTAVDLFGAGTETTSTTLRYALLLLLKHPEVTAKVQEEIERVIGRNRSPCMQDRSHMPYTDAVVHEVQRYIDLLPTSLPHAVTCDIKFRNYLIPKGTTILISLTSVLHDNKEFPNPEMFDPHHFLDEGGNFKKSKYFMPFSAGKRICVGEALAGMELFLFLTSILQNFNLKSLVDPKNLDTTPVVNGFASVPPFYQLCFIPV
Text: as §1, §2, §3, §4

[2] = tested on: Aβ production in neuroblastoma SH-SY5Y cells (SH/APPwt); test: β-amyloid (Aβ) production inhibitory effect in cell: 384-well; type: cell-based; conditions: Homo sapiens, Assay format 384-well
Method: Neuroblastoma SH-SY5Y cells (SH/APPwt) with human wild-type β-APT excessively expressed therein were prepared at 4×10^5 cells/mL, and 50 μl portions thereof were inoculated into each well of a 384-well culture plate (Corning) added 0.5 μl of the test compound of the present invention (DMSO solution). The final DMSO concentration was 1%, and the amount of the cell culture was 50 μl. After the incubation was performed for 21 hours from the cell seeding, 5 μl of the culture supernatant was collected from each fraction. The amount of the Aβ in each fraction was measured.
The Aβ amount was measured as follows. 5 μl of a homogeneous time resolved fluoresrenee (HTRF) measurement reagent (Amyloid β1-40 peptide; CIS bio international) and 5 μl of the culture supernatant were put into a 384′well plate (a black plate: Corning) and mixed with each other, and then left standing overnight at 4° C. while the light was shielded. Then, the fluorescence intensity (620 nm and 665 nm) was measured with EnViston (Perkin Elmer life sciences).

CYP3A4 = target: T4, CYP3A4 (Homo sapiens, UniProt P08684); test: CYP inhibition test (CYP3A4); type: in vitro ADME; conditions: pooled human liver microsomes; terfenadine hydroxylation
T4 construct: The commercially available pooled human liver microsomes are used as an enzyme resource; from tissue; host or cells: pooled human liver microsomes
T4 sequence (P08684 whole entry): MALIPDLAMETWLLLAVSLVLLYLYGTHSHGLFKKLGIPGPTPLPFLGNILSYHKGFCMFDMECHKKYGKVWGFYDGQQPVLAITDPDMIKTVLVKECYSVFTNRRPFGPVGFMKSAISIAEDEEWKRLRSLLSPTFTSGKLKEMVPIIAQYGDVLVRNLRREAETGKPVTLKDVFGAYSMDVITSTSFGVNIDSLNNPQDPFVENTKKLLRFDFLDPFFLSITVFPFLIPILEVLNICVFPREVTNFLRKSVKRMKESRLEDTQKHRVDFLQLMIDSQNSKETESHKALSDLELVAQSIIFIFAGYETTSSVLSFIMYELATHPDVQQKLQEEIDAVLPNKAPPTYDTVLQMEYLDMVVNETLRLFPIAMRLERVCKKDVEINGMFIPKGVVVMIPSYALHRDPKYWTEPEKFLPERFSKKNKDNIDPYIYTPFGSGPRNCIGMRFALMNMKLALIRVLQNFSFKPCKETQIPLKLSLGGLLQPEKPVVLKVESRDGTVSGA
Text: as §1, §2, §3, §4

Recombinant human BACE1 = target: T5, Recombinant human BACE1 (Homo sapiens, UniProt P56817); test: Assay of BACE1 inhibitory activity: 384-well; type: biochemical; conditions: Assay format 384-well
T5 construct: purchased R&D Systems
T5 sequence (P56817 46-501): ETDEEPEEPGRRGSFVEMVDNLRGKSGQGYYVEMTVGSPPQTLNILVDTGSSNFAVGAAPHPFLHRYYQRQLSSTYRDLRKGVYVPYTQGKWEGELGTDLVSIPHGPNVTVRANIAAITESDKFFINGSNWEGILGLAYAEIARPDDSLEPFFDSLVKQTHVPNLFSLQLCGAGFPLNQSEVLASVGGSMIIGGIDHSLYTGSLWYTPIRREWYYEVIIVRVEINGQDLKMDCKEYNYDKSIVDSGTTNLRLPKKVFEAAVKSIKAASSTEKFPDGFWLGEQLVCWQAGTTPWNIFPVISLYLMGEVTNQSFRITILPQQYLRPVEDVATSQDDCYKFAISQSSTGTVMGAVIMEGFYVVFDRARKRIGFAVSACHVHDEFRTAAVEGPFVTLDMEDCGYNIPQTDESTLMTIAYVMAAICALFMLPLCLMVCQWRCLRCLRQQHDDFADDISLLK
Method: 5 μL of substrate peptide solution (Biotin-XSEVNLDAEFRHDSGC-Eu: X=ε-amino-n-capronic acid, Eu=Europium eryplate) was added to each well of 384-well plate (a black plate: Corning), and after addition of 0.1 μl of the compound of the present invention (DMSO solution) and 5 μl of Recombinant human BACE1 (R&D Systems), the reaction mixture was incubated at 25° C. for 2 hours. The substrate peptide was synthesized by reacting Cryptate TBPCOOH mono SMP (CIS bio international) with Biotin-XSEVNLDAEFRHDSGC (Peptide Institute, Inc.).
After the incubation for reaction, 10 μl of 8.0 μg/ml Streptavidin-XL665 (CIS bio International) dissolved in phosphate buffer (150 mmol/L K2HPO4-KH2PO4, pH 7.0, 0.008% Triton X-100, 0.8 mol/L KF) was added to each well and left stand at 25° C. for 30 minutes.

Solubility test = type: physicochemical; conditions: for solubility kinetic at 1 h: kinetic from dmso stock; for solubility kinetic at 16 h: solubility in JP 2nd fluid B, 1% DMSO, *2: shaken for 1 hour at room temperature
Method: A 10 mmol/L solution of the compound was prepared with DMSO, and 2 μL of the compound of the present invention solution was added, respectively, to 198 μL of JP 1st fluid (water was added to 2.0 g of sodium chloride and 7.0 ml, of hydrochloric acid to reach 1000 mL) and JP 2nd fluid (See Table 4). The mixture was left standing for 16 hours at 25° C. or shaken for 1 hour at ruom temperature, and the mixture was vacuum-filtered. The […] was ten or one hundred-fold diluted with metbanol/water=1/1 (v/v) or MeCN/MeOH/H2O(=1/1/2), and the compound concent ration in the filtrate was measured with LC/MS or solid phase extraction (SPE)/MS by the absolute calibration method.

CYP1A2 = target: T6, CYP1A2 (Homo sapiens, UniProt P05177); test: CYP inhibition test (CYP1A2); type: in vitro ADME; conditions: pooled human liver microsomes; 7-ethoxyresorufin O-deethylation
T6 construct: The commercially available pooled human liver microsomes are used as an enzyme resource; from tissue; host or cells: pooled human liver microsomes
T6 sequence (P05177 1-516): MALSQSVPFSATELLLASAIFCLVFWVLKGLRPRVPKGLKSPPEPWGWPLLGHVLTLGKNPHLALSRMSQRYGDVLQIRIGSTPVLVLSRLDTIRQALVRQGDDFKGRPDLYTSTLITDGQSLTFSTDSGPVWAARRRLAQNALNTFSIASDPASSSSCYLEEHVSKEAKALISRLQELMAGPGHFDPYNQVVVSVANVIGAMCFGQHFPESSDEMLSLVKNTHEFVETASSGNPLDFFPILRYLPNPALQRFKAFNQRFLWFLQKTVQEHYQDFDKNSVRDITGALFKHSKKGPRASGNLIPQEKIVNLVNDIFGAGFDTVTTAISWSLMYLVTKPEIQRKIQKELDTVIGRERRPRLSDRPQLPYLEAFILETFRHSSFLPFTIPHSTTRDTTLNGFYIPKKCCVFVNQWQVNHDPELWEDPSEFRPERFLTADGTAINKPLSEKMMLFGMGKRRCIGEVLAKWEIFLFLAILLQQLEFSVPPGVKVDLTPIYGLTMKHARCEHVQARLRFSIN
Text: as §1, §2, §3, §4

CYP2C19 = target: T7, CYP2C19 (Homo sapiens, UniProt P33261); test: CYP inhibition test (CYP2C19); type: in vitro ADME; conditions: pooled human liver microsomes; mephenytoin 4′-hydroxylation
T7 construct: The commercially available pooled human liver microsomes are used as an enzyme resource; from tissue; host or cells: pooled human liver microsomes
T7 sequence (P33261 whole entry): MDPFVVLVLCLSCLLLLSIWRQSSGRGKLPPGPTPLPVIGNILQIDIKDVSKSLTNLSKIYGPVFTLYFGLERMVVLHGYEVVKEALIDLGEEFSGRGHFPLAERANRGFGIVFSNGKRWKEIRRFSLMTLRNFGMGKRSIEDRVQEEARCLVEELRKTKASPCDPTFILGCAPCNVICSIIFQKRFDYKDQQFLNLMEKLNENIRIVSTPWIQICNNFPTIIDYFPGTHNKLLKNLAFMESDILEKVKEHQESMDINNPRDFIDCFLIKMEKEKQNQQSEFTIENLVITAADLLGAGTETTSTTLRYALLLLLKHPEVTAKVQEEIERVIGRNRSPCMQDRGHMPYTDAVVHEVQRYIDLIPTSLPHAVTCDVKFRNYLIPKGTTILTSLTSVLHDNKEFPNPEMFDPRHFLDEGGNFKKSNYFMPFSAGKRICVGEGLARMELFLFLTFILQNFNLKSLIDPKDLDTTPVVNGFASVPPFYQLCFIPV
Text: as §1, §2, §3, §4

Metabolic stability test = type: in vitro ADME; conditions: human liver microsomes, 37° C., 30 minutes, NADPH
Method: Using a commercially available pooled human liver microsomes, a compound of the present invention was reacted for a constant time, a remaining rate was calculated by comparing a reacted sample and an unreacted sample, thereby, a degree of metabolism in liver was assessed.
A reaction was performed (oxidative reaction) at 37° C. for 0 minute or 30 minutes in the presence of 1 mmol/L NADPH in 0.2 mL of a buffer (60 mmol/L Tris-HCl pH 7.4, 150 mmol/L potassium chloride, 10 mmol/L magnesium chloride) containing 0.5 mg protein/mL of human liver microsomes. After the reaction, 50 μL of the reaction solution was added to 100 μL of a methanol/acetonltrile=1/1 (v/v), mixed and centrifuged at 3000 rpm for 15 minutes. The compound of the present invention in the supernatant was quantified by LC/MS/MS or solid phase extraction (SPE)/MS, and a remaining amount of the compound of the present invention after the reaction area calculated, letting a compound amount at 0 minute reaction time to be 100%.

[3] = JP 1st fluid, pH 1.2, simulated gastric fluid, read-out: JP1
[4] = JP 2nd fluid B, pH 6.8, aqueous buffer, read-out: JP2_μM

T1 sequence (Q12809 whole entry): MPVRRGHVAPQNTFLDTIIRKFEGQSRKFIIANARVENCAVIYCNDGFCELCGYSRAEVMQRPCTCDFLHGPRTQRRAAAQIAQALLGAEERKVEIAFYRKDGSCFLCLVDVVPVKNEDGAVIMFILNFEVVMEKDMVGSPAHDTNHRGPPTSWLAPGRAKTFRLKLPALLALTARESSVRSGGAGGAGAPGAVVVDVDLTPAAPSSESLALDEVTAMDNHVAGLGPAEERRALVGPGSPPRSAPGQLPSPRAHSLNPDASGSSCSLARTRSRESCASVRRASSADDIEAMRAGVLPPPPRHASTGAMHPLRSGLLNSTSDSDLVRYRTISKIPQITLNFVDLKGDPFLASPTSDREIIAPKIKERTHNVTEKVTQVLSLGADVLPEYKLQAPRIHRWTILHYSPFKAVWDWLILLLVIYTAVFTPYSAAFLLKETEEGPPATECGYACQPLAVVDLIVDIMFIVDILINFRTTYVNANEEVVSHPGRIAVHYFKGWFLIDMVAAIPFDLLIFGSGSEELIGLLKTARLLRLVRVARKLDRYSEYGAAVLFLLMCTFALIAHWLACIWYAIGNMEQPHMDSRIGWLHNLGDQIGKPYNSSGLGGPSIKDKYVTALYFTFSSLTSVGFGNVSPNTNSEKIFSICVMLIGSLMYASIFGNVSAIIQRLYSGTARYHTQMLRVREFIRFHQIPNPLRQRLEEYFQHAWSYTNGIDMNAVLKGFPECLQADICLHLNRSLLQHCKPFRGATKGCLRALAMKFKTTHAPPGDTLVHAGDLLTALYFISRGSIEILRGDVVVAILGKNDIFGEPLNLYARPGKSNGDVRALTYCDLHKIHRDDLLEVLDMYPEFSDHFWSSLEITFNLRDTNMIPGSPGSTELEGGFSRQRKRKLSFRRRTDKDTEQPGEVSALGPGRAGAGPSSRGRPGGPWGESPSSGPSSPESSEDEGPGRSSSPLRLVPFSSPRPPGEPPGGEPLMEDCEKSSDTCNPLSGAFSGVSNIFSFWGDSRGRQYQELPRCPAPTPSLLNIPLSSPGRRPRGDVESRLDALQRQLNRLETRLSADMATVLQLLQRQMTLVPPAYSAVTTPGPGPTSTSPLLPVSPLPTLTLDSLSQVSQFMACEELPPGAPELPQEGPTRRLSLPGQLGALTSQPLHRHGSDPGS

SMILES	hERG_3 uM_% [1]	IC50 (CYP2D6)	IC50 (CYP2C9)	IC50 [2]	IC50 (CYP3A4)	IC50 (Recombinant human BACE1)	solubility kinetic at 1 h (Solubility test; [3])	solubility kinetic at 16 h (Solubility test; read-out: JP2_μM)	IC50 (CYP1A2)	IC50 (CYP2C19)	remaining % (Metabolic stability test)	solubility kinetic at 1 h (Solubility test; [4])
COCC(F)(F)[C@H]1OC(N)=N[C@](C)(c2cc(NC(=O)c3ccc(C#N)cn3)ccc2F)[C@H]1F [Compound I-78]	39.6%	≥ 10 µM	≥ 20 µM	0.0067 µM	≥ 10 µM	0.00735 µM	> 50 µM	>50 µM	≥ 20 µM	≥ 20 µM		
C[C@H]1SC(N)=N[C@](C)(c2cccc(NC(=O)c3ccc(C#N)cn3)c2)[C@H]1F [Compound I-102]		≥ 20 µM	≥ 20 µM	0.0016 µM	≥ 20 µM	0.0234 µM	> 50 µM	>50.0 µM	≥ 20 µM	≥ 20 µM	78.1%	
Cc1cc(C#N)cnc1C(=O)Nc1cccc([C@@]2(C)N=C(N)S[C@H](C)[C@@H]2F)c1 [Compound I-105]		≥ 20 µM	≥ 20 µM	0.00074 µM	≥ 20 µM	0.0305 µM	47.3 µM (≈ 18.8 µg/mL)		≥ 20 µM	≥ 20 µM	56.8%	> 50 µM
C[C@H]1SC(N)=N[C@](C)(c2cccc(NC(=O)c3ccc(OCF)cn3)c2)[C@H]1F [Compound I-107]		≥ 20 µM	≥ 10 µM	0.00042 µM	≥ 20 µM	0.0235 µM	33.5 µM (≈ 13.6 µg/mL)		≥ 20 µM	≥ 20 µM	64.2%	> 50 µM
C[C@H]1SC(N)=N[C@](C)(c2cc(NC(=O)c3ncc(C#N)cc3F)ccc2F)[C@H]1F [Compound I-110]		≥ 10 µM	≥ 10 µM	0.0011 µM	≥ 20 µM	0.0225 µM	42.1 µM (≈ 17.7 µg/mL)		≥ 20 µM	≥ 20 µM	81.1%	> 50 µM
[2H]C([2H])([2H])Oc1cnc(C(=O)Nc2cccc([C@@]3(C)N=C(N)S[C@H](C)[C@@H]3F)c2)cn1 [Compound I-114]		≥ 20 µM	≥ 10 µM	0.0051 µM	≥ 20 µM	0.0415 µM	> 50 µM	>50.0 µM	≥ 20 µM	≥ 20 µM	80.5%	
C[C@H]1SC(N)=N[C@](C)(c2cccc(NC(=O)c3ccc(F)cn3)c2)[C@H]1F [Compound I-115]		≥ 20 µM	≥ 20 µM	0.0072 µM	≥ 20 µM	0.0343 µM	> 50 µM	>50.0 µM	≥ 10 µM	≥ 20 µM	78.9%	
